# Measurements from patent US20200063104A1, “EXPANSION OF HPSC-DERIVED GRANULOCYTIC AND LYMPHOID PROGENITORS WITH UM171” (Wisconsin Alumni Research Foundation, priority 2018, published 2020).
# Key:
# [1] = test system: hPSCs (NK cell production); details: 28-day period, prior studies; cited from earlier work
# [2] = test system: CD34+CD43+ hPSC-derived HPs; assay: Expansion of hPSC-derived hematopoietic progenitors in HSC expansion conditions (flow cytometry); format: cell-based, human
# From the text: To understand the effect of UM171 on hPSC-derived HPs and provide mechanistic insight on its action, we performed hematopoietic differentiation of H1 hESCs in defined feeder- and serum-free defined conditions for 9 days to generate HPs^10. We then cultured the cells in SFEM medium supplemented with cytokines that support expansion of HSCs (TPO, SCF, FLT3L, IL3 and IL6), and with UM171 or DMSO (negative control) (FIG. 1A). […] Overall, cultures with UM171 generated up to 10-fold higher numbers of CD34^+CD43^+CD45^+ HPs, as compared to control cultures.
# Hematopoietic progenitors from Day 9 differentiation cultures were expanded in StemSpan™-SFEM (Stem Cell Technologies), supplemented with 35 nM UM171 (Xcess Biosciences), or equivalent volume of DMSO, and 100 ng/ml TPO, 100 ng/ml SCF, 100 ng/ml FLT3L, 50 ng/ml IL-6, and 10 ng/ml IL-3. Expansion cultures were supplemented with fresh StemSpan™-SFEM (Stem Cell Technologies) media with the same cytokine concentrations, every 3 days. Cells were plated at up to 150,000 cells/ml. At day 5 or indicated time points, cells were collected for flow cytometric (FCM) analysis and CFU assay. […]
# [3] = test system: hPSC-derived HPs (CFC potential); assay: Methylcellulose colony forming assay of expanded HPs; format: cell-based, human
# Method: Hematopoietic colony forming potential was assessed by combining cells of interest with 1.5 ml serum containing H4436 Methocult (Stem Cell Technologies). Cell suspensions were then transferred to 35-mm dishes and cultured for 12-14 days at 37° C. Hematopoietic colonies were scored according to cellular morphology, and CFC numbers were normalized to the number of cells plated (CFCs/10^4) cells.
# [4] = test system: CD34+CD43+ hPSC-derived HPs; assay: Apoptosis by annexin V assay in HP expansion cultures; format: cell-based, human; details: 5 days of expansion, UM171 vs DMSO
# Method: (§1) For apoptosis detection, cells were stained with CD34-FITC, CD45-BV421, and CD43-APC (BD Pharmingen), along with PI and Annexin V-PE (BD Pharmingen), and analyzed by flow cytometry. To assess proliferation of hematopoietic progenitors, using cell proliferation antigen Ki-67, cells were incubated with CD34-PE, CD43-BV421 (BD Pharmingen), and Ghost violet 540 cell viability dye (TONBO Biosciences). Cells were then fixed and permeabilized with 70% ethanol, and stained with Ki67-APC (Miltenyi Biotech), according to the manufacturer protocol, and analyzed by flow cytometry. Cell cycle analysis of total hematopoietic progenitors was carried out using the FITC BrdU flow kit (BD Pharmingen), following manufacturer recommendations. On day four of HP expansion in HSC or lymphoid expansion conditions and on day 3 of NK differentiation cells were labelled with BrdU. […] CD34^+CD43^+CD45^+ and CD34^+CD43^+CD45^+CD41a^+ hematopoietic progenitors, CD34^+CD45^+CD7^+, lymphoid progenitors, or CD45^+CD56^+ NK cells were then analyzed for cell cycle kinetics and proliferation, through BrdU incorporation.
# [5] = test system: CD34+CD43+ hPSC-derived HPs; assay: Proliferation and cell cycle (BrdU assay, Ki67 staining) in HP expansion cultures; format: cell-based, human
# Method: For apoptosis detection, cells were stained with CD34-FITC, CD45-BV421, and CD43-APC (BD Pharmingen), along with PI and Annexin V-PE (BD Pharmingen), and analyzed by flow cytometry. To assess proliferation of hematopoietic progenitors, using cell proliferation antigen Ki-67, cells were incubated with CD34-PE, CD43-BV421 (BD Pharmingen), and Ghost violet 540 cell viability dye (TONBO Biosciences). Cells were then fixed and permeabilized with 70% ethanol, and stained with Ki67-APC (Miltenyi Biotech), according to the manufacturer protocol, and analyzed by flow cytometry. Cell cycle analysis of total hematopoietic progenitors was carried out using the FITC BrdU flow kit (BD Pharmingen), following manufacturer recommendations. On day four of HP expansion in HSC or lymphoid expansion conditions and on day 3 of NK differentiation cells were labelled with BrdU. After 24 hours, samples were collected and incubated with CD34-PE, CD43-BV421 (BD Pharmingen), and CD45-APC (Miltenyi Biotech); CD34-PE or 34 PerCP, CD45-BV421 (BD Pharmingen), and CD41a-APC (Miltenyi Biotech); CD45-BV421, CD7-PE, and CD34-APC (BD Pharmingen); or CD45-BV421 and CD56-APC (BD Pharmingen), and then counterstained with Ghost violet 540 cell viability dye (TONBO Biosciences). This was followed by fixation, permeabilization, and a 1 hour incubation with DNase at 37° C., to expose incorporated BrdU. After washing, cells were stained first with anti BrdU-FITC, followed by 7AAD, and flow cytometry was performed. CD34^+CD43^+CD45^+ and CD34^+CD43^+CD45^+CD41a^+ hematopoietic progenitors, CD34^+CD45^+CD7^+, lymphoid progenitors, or CD45^+CD56^+ NK cells were then analyzed for cell cycle kinetics and proliferation, through BrdU incorporation.
# [6] = test system: CD34+CD235+CD41a+ cells; assay: RNAseq analysis of CD34+CD235+CD41a+ cells expanded in HSC expansion conditions; format: cell-based, human
# Method: To analyze changes in molecular profile induced by UM171, we isolated CD34^+CD235^+CD41a^+ cells on day 9 of differentiation, cultured them in HSC expansion conditions with UM171 or DMSO for 16 hours and 5 days, and then performed RNAseq analysis of expanded cells.
# Total RNA was isolated using RNeasy Micro Kit (Qiagen) and subjected to DNase digestion, according to the manufacturer's protocol. Isolated RNAs were used for either quantitative RT-PCR or RNA sequencing. RNA purity and integrity was evaluated by capillary electrophoresis on the Bioanalyzer 2100 (Agilent Technologies, Santa Clara, Calif.). […] Final sample libraries were quantitated with the Life Technologies Qubit fluorometer and sequenced on the Illumina HiSeq 3000 (SY-401-3001). […] Following quality assessment and filtering for adapter molecules and other sequencing artifacts, the sequencing reads were aligned to transcript sequences corresponding to hg19 human genome annotation. Bowtie v 1.1.2 was used allowing two mismatches in a 25 bp seed and excluding reads with more than 200 alignments^25. RSEM v 1.3.0 was used to estimate isoform or gene relative expression levels in units of “transcripts per million” (tpm), as well as posterior mean estimate of the “expected counts” (the non-normalized absolute number of reads assigned by RSEM to each isoform/gene)^26,27. […]
# [7] = test system: hPSC-derived HPs (NK cell production); assay: NK cell differentiation of hPSC-derived HPs on OP9-DLL4; format: cell-based, human
# From the text: To assess the effect of UM171 on NK cell differentiation, we collected HPs from hPSC cultures on day 9 of differentiation, and cultured them on OP9-DLL4, with or without UM171, as shown in FIG. 5A. After 14 days, these cultures generated CD56^+ NK cells that expressed CD94 and CD16, markers of mature NK cells. Although UM171 had no effect on the percentages of NK cells or their phenotype, the absolute numbers of NK cells generated with UM171 were approximately 10-fold higher as compare to DMSO controls (FIG. 5B-D). […] Similar findings were obtained with HPs generated from H9 hESCs and the IISH2i-BM9 iPSC line that was derived from bone marrow mononuclear cells (FIG. 9).
# NK differentiation of hematopoietic progenitor cells was performed in α-MEM (Gibco), supplemented with 20% FBS (HyClone), on mouse OP9-DLL4 expressing feeder layer, in two stages. In stage 1, hematopoietic progenitor cells were cultured for 7 days on OP9-DLL4, with 100 ng/ml FLT3L, 40 ng/ml SCF, and 5 ng/ml IL-7 (Peprotech), and 35 nM UM171 or equivalent volume DMSO. Cells were then transferred to fresh α-MEM media, supplemented with 10 ng/ml Il-2 and 5 ng/ml IL-15 (Peprotech), and with or without UM171 treatment. Media was topped up with one volume fresh media, every 3-4 days, and cultures were transferred to new OP9-DLL4 cells, every 7 days. After 14 to 21 days, cells were harvested for flow cytometry and other analyses. OP9-DLL4 were used at 75-80% confluency.
# [8] = test system: CD34+CD45+CD7+ progenitors; assay: BrdU cell cycle analysis in NK differentiation cultures; format: cell-based, human; details: lymphoid stage of NK differentiation
# Method: as §1
# [9] = 5 days of expansion, UM171 vs DMSO
SMILES,fold increase in NK cell output [1],"fold higher numbers of CD34+CD43+CD45+ HPs as compared to control cultures ([2]; 35 nM UM171 vs DMSO, H1 hESC-derived day 9 HPs, SFEM with TPO, SCF, FLT3L, IL3, IL6)","CD201 expression in CD34+CD45+ HPs ([2]; HSC expansion conditions, 35 nM UM171)",effect on CFC potential of expanded cells ([3]; HPs expanded 5 and 7 days with UM171 vs DMSO),share of G-CFCs in the CD34+CD41a(lo)CD45+ progenitor population ([3]; UM171 cultures with HSC expansion cytokines),"number of apoptotic, especially late apoptotic (AnnexinV+PI+) cells [4]",number of viable cells [4],"cell cycle distribution of HPs [5, 9]","proliferation of HPs by BrdU assay and Ki67 staining [5, 9]",proportions of CD41a(lo) and CD41a(hi) cells within BrdU+ fraction ([5]; UM171 expansion cultures),"fold higher frequency of proliferating CD41a(lo) HPs as compared to DMSO control ([5]; within BrdU+ fraction, CD34+CD45+ gated, 5 days of expansion)","expression of aryl-hydrocarbon receptor target genes ([6]; UM171 vs DMSO, 16 hours and 5 days)",AHR and AHRR expression ([6]; hPSC-derived HPs),"fold higher absolute numbers of NK cells as compared to DMSO controls ([7]; 35 nM UM171, after 14 days on OP9-DLL4)",stage of NK differentiation at which addition has an effect ([7]; added during first 7 or final 7-14 days),"percentages of NK cells or their phenotype ([7]; after 14 days on OP9-DLL4, UM171 vs DMSO)","fold increase in NK cell output ([7]; lymphoid cultures on OP9-DLL4 with SCF, FLT3L, IL7, 14-day period)","fold increase in NK and T cell output ([7]; lymphoid cultures on OP9-DLL4 with SCF, Flt-3, IL7)",proportion of proliferating CD34+CD45+CD7+ progenitors [8]
CC(C)n1cnc2c(NCCc3ccc(O)cc3)nc(-c3csc4ccccc34)nc21 [SR1],up to 2 fold,,,,,,,,,,,,,,,,,,
Cn1nnc(-c2ccc3c(c2)[nH]c2nc(Cc4ccccc4)nc(NC4CCC(N)CC4)c23)n1 (stereo not shown) [UM171],,up to 10 fold,induction of CD201 expression,most dramatic effect on G-CFCs,> 50%,decreased number of apoptotic,increased number of viable cells,predominantly increases the proportion of HPs in the early S phase,increased proliferation,approximately equal proportions,up to 7 fold,did not affect,minimal effect,approximately 10 fold,only when added during the first 7 days,no effect,up to 10 fold,up to 10 fold,increases the proportion of proliferating
